Measured values published in patent US11390580B2, “Anti-fungals targeting the synthesis of fungal shingolipids” (THE RESEARCH FOUNDATION FOR THE STATE UNIVERSITY OF NEW YORK, priority 2014, dated 2022).
Read-outs that look alike come from different tables or passages of the source.

What was measured:
Paecilomyces variotii = experiment: In vitro susceptibility testing (MIC); assay type: cell-based; details: for BHBM 24 Hr 50% / BHBM 48 Hr 50%: MIC, QC strain
Pharmacokinetics of BHBM = assay type: in vivo, mice
Protocol: The mice from each group were sacrificed and blood samples were collected at pre-dose and 0.5, 1, 2, 4, 8, 12, and 24 post-administration into K2EDTA containing tubes. The samples were centrifuged immediately and plasma was collected and stored at −80° C. until analysis. Plasma samples were extracted using methylene chloride. […] After mixing, 1 ml of methylene chloride was added and the samples were vortex mixed for 30 seconds followed by centrifugation for 5 minutes. […] The residue was reconstituted in 100 μL acetonitrile: water (50:50) solution, mixed and transferred to mass spec vials. […] The mobile phase consisted of water: acetonitrile with 0.1% formic acid (50:50) ran at a flow rate of 200 μL/min. Aliquots of 5 μL were analyzed using LTQ-FT liquid chromatography/tandem mass spectrometer (LC/MS/MS) with electrospray source in the positive ion mode (ThermoFisher Scientific, Waltham, Mass.). The retention time of BHBM was 5.7 mins. The lower limit of quantification (LLOQ) was 10 ng/ml. Systemic exposure of BHBM in mice was quantified by calculating the AUC of the drug from pre-dose to the end of the dosing interval (AUC0-t) using the linear trapezoidal rule by non-compartmental analysis employing Phoenix winNonlin 6.3 (Pharsight Corp, Mountain View, Calif.). The elimination half-life (t1/2) was calculated as 0.693/λz, where λz is the terminal elimination rate constant. Bioavailability of IP route was calculated.

Gcs1 = Gcs1 (Cryptococcus neoformans, UniProt J9W453); experiment: In vitro Gcs1 activity in cell lysate
Chain of Gcs1 (J9W453 whole entry): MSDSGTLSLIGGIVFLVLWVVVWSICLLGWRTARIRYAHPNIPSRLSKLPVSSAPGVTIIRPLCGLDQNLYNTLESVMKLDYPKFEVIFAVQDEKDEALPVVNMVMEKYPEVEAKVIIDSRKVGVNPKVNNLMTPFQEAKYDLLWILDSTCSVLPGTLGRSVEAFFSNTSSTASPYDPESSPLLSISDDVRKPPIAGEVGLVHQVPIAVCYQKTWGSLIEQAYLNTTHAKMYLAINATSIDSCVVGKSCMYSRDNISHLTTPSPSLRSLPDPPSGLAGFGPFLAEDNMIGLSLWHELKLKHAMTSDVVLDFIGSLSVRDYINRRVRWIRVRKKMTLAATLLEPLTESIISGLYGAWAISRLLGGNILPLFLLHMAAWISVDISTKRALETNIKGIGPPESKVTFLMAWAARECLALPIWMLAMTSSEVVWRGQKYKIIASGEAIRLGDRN

[1] = C3H/HeN, mouse, in vivo, ip, 0.8 mg/kg
[2] = C3H/HeN, mouse, in vivo, ip, 1.6 mg/kg

Cc1ccccc1C(=O)NN=Cc1ccc(O)c(Br)c1 [BHBM, N′-(3-bromo-4-hydroxybenzylidene)-2-methylbenzohydrazide]
in vitro activity (Paecilomyces variotii): not active | BHBM 24 Hr 50% (Paecilomyces variotii): 8 | BHBM 48 Hr 50% (Paecilomyces variotii): >16 | BHBM 24 Hr 50% (Paecilomyces variotii; first listing r7-r78): 8 | BHBM 48 Hr 50% (Paecilomyces variotii; first listing r7-r78): >16 | MIC range (Paecilomyces variotii; QC, Fungus Testing Lab): >16 µg/mL | bioavailability (Pharmacokinetics of BHBM; [1]): 93.6% | half-life (Pharmacokinetics of BHBM; [1]): 0.79 h | bioavailability (Pharmacokinetics of BHBM; [2]): 100.33% | half-life (Pharmacokinetics of BHBM; [2]): 0.84 h | half-life (Pharmacokinetics of BHBM; C3H/HeN, mouse, in vivo, iv, 1.6 mg/kg): 1.24 h | bioavailability (Pharmacokinetics of BHBM; C3H/HeN, mouse, plasma, 0.8 mg/kg, immunocompetent mice, IP low dose, read-out: bioavailability): 93.6% | half-life (Pharmacokinetics of BHBM; C3H/HeN, mouse, plasma, intraperitoneal, 1.6 mg/kg): ~1.4 h | systemic exposure (AUC0-t and Cmax) (Pharmacokinetics of BHBM; IP administration, compared to normal group): higher in immunosuppressed/infected group | bioavailability (Pharmacokinetics of BHBM; immunocompetent mice, IP high dose): 90.59% | half-life (Pharmacokinetics of BHBM; immunocompetent mice, IP high dose (1.6 mg/kg)): 1.43 h | half-life (Pharmacokinetics of BHBM; immunocompetent mice, IP low dose (0.8 mg/kg)): 1.70 h | half-life (Pharmacokinetics of BHBM; immunocompetent mice, IV high dose (1.6 mg/kg)): 1.03 h | in vitro activity of Gcs1 (Gcs1): does not inhibit
